Legend:
[1] = biological target: T1, UBA6 Ubiquitin-like modifier-activating enzyme 6 (Homo sapiens, UniProt A0AVT1); test: competitive isoTOP-ABPP; assay type: binding; settings: for R value (DMSO/fragment) for probe 1 labeling: A0AVT1_K409
T1 construct: isoTOP-ABPP experiments performed in cell lysates (in vitro); endogenous in cells; host or cells: MDA-MB-231 soluble lysate
T1 sequence (A0AVT1 1-1052): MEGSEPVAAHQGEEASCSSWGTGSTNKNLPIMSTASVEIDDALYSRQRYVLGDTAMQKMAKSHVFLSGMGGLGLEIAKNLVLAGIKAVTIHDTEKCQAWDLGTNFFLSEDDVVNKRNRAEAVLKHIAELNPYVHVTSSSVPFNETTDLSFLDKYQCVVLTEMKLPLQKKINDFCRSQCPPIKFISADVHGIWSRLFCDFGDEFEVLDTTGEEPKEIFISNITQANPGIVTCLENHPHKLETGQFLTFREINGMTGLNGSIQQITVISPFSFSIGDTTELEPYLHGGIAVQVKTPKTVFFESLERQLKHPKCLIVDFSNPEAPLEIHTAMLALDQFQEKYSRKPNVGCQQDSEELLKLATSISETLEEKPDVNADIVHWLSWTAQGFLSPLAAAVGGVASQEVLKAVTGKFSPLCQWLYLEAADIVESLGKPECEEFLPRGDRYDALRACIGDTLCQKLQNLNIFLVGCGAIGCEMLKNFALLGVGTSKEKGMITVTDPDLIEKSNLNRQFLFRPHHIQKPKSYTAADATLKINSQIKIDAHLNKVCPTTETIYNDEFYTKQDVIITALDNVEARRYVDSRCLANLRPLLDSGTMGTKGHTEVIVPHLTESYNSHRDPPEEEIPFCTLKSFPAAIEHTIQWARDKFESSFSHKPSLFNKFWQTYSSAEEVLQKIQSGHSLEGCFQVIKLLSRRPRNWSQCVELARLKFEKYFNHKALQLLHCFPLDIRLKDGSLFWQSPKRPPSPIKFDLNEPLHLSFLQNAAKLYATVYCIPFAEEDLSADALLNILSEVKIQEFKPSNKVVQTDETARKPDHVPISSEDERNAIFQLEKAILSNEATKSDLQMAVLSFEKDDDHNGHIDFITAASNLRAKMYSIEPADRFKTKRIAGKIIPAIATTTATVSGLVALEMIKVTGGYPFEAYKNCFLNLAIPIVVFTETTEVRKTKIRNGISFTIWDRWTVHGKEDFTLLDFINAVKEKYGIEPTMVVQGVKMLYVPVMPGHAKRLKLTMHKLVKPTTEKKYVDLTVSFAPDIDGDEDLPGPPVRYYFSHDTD
Procedure, shortened: (§1)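 Lysate + fragment (50 μM activated ester / 100 μM guanidinylating agent) or DMSO → 0.1 mM STP-alkyne, 1 h, RT → CuAAC to TEV tags (compound light, DMSO heavy) → LC-MS. R = heavy/light MS1 area; liganded lysine if R≥4.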

[2] = biological target: T2, RPL9P9 60S ribosomal protein L9 (Homo sapiens, UniProt P32969); test: competitive isoTOP-ABPP; assay type: binding; settings: for isoTOP-ABPP reactivity ratio at lysine P32969_K82 / isoTOP-ABPP ratio (R) at liganded lysine P32969_K82: 50 uM, in vitro; for isoTOP-ABPP reactivity ratio at lysine P32969_K82: 231 sol; for isoTOP-ABPP ratio (R) at liganded lysine P32969_K82: sol, 231; for isoTOP-ABPP ratio, lysine P32969_K82: 50 uM_231_sol_in vitro
T2 construct: isoTOP-ABPP experiments performed in cell lysates (in vitro); endogenous in cells; host or cells: soluble proteome of human cancer cell lines (MDA-MB-231; Ramos and Jurkat also prepared)
Procedure, shortened: as §1

## O=C(CCc1cn(-c2ccccc2)nc1-c1ccccc1)Oc1c(F)c(F)c(F)c(F)c1F [fragment 19, Pentafluorophenyl 3-(1,3-diphenyl-1H-pyrazol-4-yl)propanoate]
[1]; 50 uM, 231 sol, in vitro
  R value (DMSO/fragment) for probe 1 labeling: 1.5

## Cn1cc(CC(=O)Oc2c(F)c(F)c(F)c(F)c2F)c2ccccc21 [fragment 22, Pentafluorophenyl 2-(1-methyl-1H-indol-3-yl)acetate]
[1]; 50 uM, 231 sol, in vitro
  R value (DMSO/fragment) for probe 1 labeling: 1.6

## COc1cc(CCC(=O)Oc2c(F)c(F)c(F)c(F)c2F)cc(OC)c1OC [fragment 23, Pentafluorophenyl 3-(3,4,5-trimethoxyphenyl)propanoate]
[1]; 50 uM, 231 sol, in vitro
  R value (DMSO/fragment) for probe 1 labeling: 1.3

## O=C(Oc1c(F)c(F)c(F)c(F)c1F)c1ccc2ccccc2n1 [fragment 25, Pentafluorophenyl quinoline-2-carboxylate]
[1]; 50 uM, 231 sol, in vitro
  isoTOP-ABPP reactivity ratio at lysine A0AVT1_K409: 1.4

## O=C(Oc1ccc([N+](=O)[O-])cc1[N+](=O)[O-])c1cc(C(F)(F)F)cc(C(F)(F)F)c1 [fragment 31, 2,4-Dinitrophenyl 3,5-bis(trifluoromethyl)benzoate]
[2]
  isoTOP-ABPP reactivity ratio at lysine P32969_K82: 0.9

## Cn1cc(CC(=O)Oc2ccc([N+](=O)[O-])cc2[N+](=O)[O-])c2ccccc21 [fragment 32, 2,4-Dinitrophenyl 2-(1-methyl-1H-indol-3-yl)acetate]
[2]
  isoTOP-ABPP reactivity ratio at lysine P32969_K82: 1.0

## O=C(Oc1ccc([N+](=O)[O-])cc1[N+](=O)[O-])c1ccc2ccccc2n1 [fragment 35, 2,4-Dinitrophenyl quinoline-2-carboxylate]
[2]
  isoTOP-ABPP ratio (R) at liganded lysine P32969_K82: 0.8

## O=C(Oc1ccc([N+](=O)[O-])cc1[N+](=O)[O-])c1ccc(Oc2ccccc2)cc1 [fragment 39, 2,4-Dinitrophenyl 4-phenoxybenzoate]
[2]
  isoTOP-ABPP ratio (R) at liganded lysine P32969_K82: 0.7

## CC(C)(C)OC(=O)NCCCC(=O)Oc1ccc([N+](=O)[O-])cc1[N+](=O)[O-] [fragment 41, 2,4-Dinitrophenyl 4-((tert-butoxycarbonyl)amino)butanoate]
[2]
  isoTOP-ABPP ratio (R) at liganded lysine P32969_K82: 0.9
[1]; 50 uM, in vitro, sol, 231
  isoTOP-ABPP ratio (R) at liganded lysine A0AVT1_K409: 6.6

## CC(=O)Oc1ccc([N+](=O)[O-])cc1[N+](=O)[O-] [fragment 43, 2,4-Dinitrophenyl acetate]
[2]
  isoTOP-ABPP ratio (R) at liganded lysine P32969_K82: 0.9

## N#Cc1ccc(C(=O)Oc2ccc([N+](=O)[O-])cc2[N+](=O)[O-])cc1 [fragment 44, 2,4-Dinitrophenyl 4-cyanobenzoate]
[2]
  isoTOP-ABPP ratio, lysine P32969_K82: 14.5

## O=C(CCc1ccc2c(c1)OCO2)Oc1ccc([N+](=O)[O-])cc1[N+](=O)[O-] [fragment 45, 2,4-Dinitrophenyl 3-(benzo[d][1,3]dioxol-5-yl)propanoate]
[2]
  isoTOP-ABPP ratio, lysine P32969_K82: 1.0
[1]; 50 uM_231_sol_in vitro
  isoTOP-ABPP ratio, lysine A0AVT1_K409: 6.3

## O=C(ON1C(=O)CCC1=O)c1cc(C(F)(F)F)cc(C(F)(F)F)c1 [fragment 46, 3,5-Bis(trifluoromethyl)benzoic acid NHS ester]
[2]
  isoTOP-ABPP ratio, lysine P32969_K82: 0.5
